Source: ChEMBL document CHEMBL1156523, “Cryptosporidium p30, a galactose/N-acetylgalactosamine-specific lectin, mediates infection in vitro” (J Biol Chem, 2007)
Converted amounts (≈) assume the structure as drawn.

Experiments:
[1] = Inhibition of Cryptosporidium parvum recombinant Galactose/N-acetylgalactosamine-specific lectin binding to Caco2A cells; format: cell-based; details: caco-2
Cryptosporidium hominis [2] = experiment: Anticryptosporidial activity against Cryptosporidium hominis TU502 assessed as inhibition of rabbit erythrocytes hemagglutinination; format: functional
Cryptosporidium parvum [3] = experiment: Anticryptosporidial activity against Cryptosporidium parvum GCH1 assessed as inhibition of rabbit erythrocytes hemagglutinination; format: functional
Cryptosporidium parvum [4] = experiment: Anticryptosporidial activity against Cryptosporidium parvum GCH1 assessed as inhibition of rabbit erythrocytes hemagglutinination relative to galactose; format: functional
Cryptosporidium hominis [5] = experiment: Anticryptosporidial activity against Cryptosporidium hominis TU502 assessed as inhibition of rabbit erythrocytes hemagglutinination relative to galactose; format: functional

Compound | IC50 [1] [mM] | MIC (Cryptosporidium hominis [2]) [mM] | MIC (Cryptosporidium parvum [3]) [mM] | Activity (Cryptosporidium parvum [4]) | Activity (Cryptosporidium hominis [5])
CO[C@H]1O[C@H](CO)[C@@H](O)[C@H](O)[C@H]1O | > 500 | – | – | – | –
CC(=O)N[C@@H]1[C@@H](O)[C@H](O)[C@@H](CO)O[C@H]1O [N-ACETYLGLUCOSAMINE] | > 500 | > 100 | 50 (≈ 11100 µg/mL) | 0.124 | 0.062
O=[N+]([O-])c1ccc(O[C@H]2O[C@H](CO)[C@H](O)[C@H](O)[C@H]2O)cc1 | 25 | – | – | – | –
O=C[C@H](O)[C@@H](O)[C@@H](O)[C@H](O)CO [GALACTOSE] | 12.5 | 6.2 (≈ 1120 µg/mL) | 6.2 (≈ 1120 µg/mL) | 1 | 1
OC[C@H]1OC(O)[C@@H](O)[C@@H](O)[C@@H]1O (stereo partly drawn) [D-MANNOSE] | > 500 | > 100 | 50 (≈ 9010 µg/mL) | 0.124 | 0.062
C[C@H](O)[C@@H](O)[C@@H](O)[C@H](O)C=O [L-FUCOSE] | > 500 | > 100 | > 100 | <0.062 | <0.062
O=[N+]([O-])c1ccc(O[C@@H]2O[C@H](CO)[C@H](O)[C@H](O)[C@H]2O)cc1 | 50 | – | – | – | –
OC[C@H]1O[C@@H](O)[C@H](O)[C@@H](O)[C@@H]1O [DEXTROSE] | > 500 | > 100 | 100 (≈ 18000 µg/mL) | 0.062 | 0.062

Now from value to compound, other results behind:

IC50 [1] [mM] | MIC (Cryptosporidium hominis [2]) [mM] | MIC (Cryptosporidium parvum [3]) [mM] | Compound | Activity (Cryptosporidium parvum [4]) | Activity (Cryptosporidium hominis [5])
2.5 | – | – | OC[C@H]1O[C@H](O[C@@H]2[C@H](O)[C@@H](O)C(O)O[C@@H]2CO)[C@H](O)[C@@H](O)[C@H]1O (stereo partly drawn) | – | –
0.5 | – | – | CC(=O)N[C@@H]1[C@@H](O)[C@H](O)[C@@H](CO[C@@H]2O[C@H](CO)[C@H](O)[C@H](O)[C@H]2O)O[C@H]1O | – | –
3.5 | – | – | CC(=O)N[C@H]1C(O)O[C@H](CO)[C@H](O)[C@@H]1O[C@@H]1O[C@H](CO)[C@H](O)[C@H](O)[C@H]1O (stereo partly drawn) | – | –
6.5 | 3.1 (≈ 686 µg/mL) | 3.1 (≈ 686 µg/mL) | CC(=O)N[C@H]1C(O)O[C@H](CO)[C@H](O)[C@@H]1O (stereo partly drawn) | 2 | 2
1.5 | – | – | CC(=O)N[C@@H]1[C@@H](O[C@@H]2O[C@H](CO)[C@H](O)[C@H](O)[C@H]2O)[C@H](O)[C@@H](CO)O[C@H]1O | – | –
5 | – | – | OC[C@H]1O[C@H](O[C@H]2[C@H](O)[C@@H](O)[C@H](O)O[C@@H]2CO)[C@H](O)[C@@H](O)[C@H]1O | – | –
